Reference: paper PMC10053865 (2023)

Tests used:
[1] = test system: Cocaine aptamer (ITO-supported sensor) (DNA, aptamer) GACAAGGAAAATCCTTCAACGAAGTGGGTC; assay: square-wave voltammetry (60 Hz), Hill fit; conditions: 137 mM NaCl, 2.7 mM KCl; 1x PBS pH 7.4, 23 °C; apparent; procaine hydrochloride
[2] = test system: Cocaine aptamer (Au-supported sensor) (DNA, aptamer) GACAAGGAAAATCCTTCAACGAAGTGGGTC; assay: square-wave voltammetry (80 Hz), Hill fit; conditions: 137 mM NaCl, 2.7 mM KCl; 1x PBS pH 7.4, 23 °C; apparent; procaine hydrochloride

Compound: CCN(CC)CCOC(=O)c1ccc(N)cc1
- KD-ITO [1]: 6.2 ± 0.6 mM
- KD-Au [2]: 63.7 ± 9.3 mM
